Marks after values point to notes of the source that are not given here.
Assays:
bovine rhodopsin = target: T1, bovine rhodopsin (Bos taurus, UniProt P02699); assay: rhodopsin Meta II decay assay (Trp265 intrinsic fluorescence); details: 100 μM compound
T1 construct: The washed ROS with isotonic and hypotonic buffers was used as described above; from tissue; host or cells: bovine rod outer segments (ROS)
Procedure: However, oligomerization of isorhodopsin could affect the chromophore release from opsin. The chromophore release can be measured sensitively by the light-induced increase in intrinsic fluorescence of the Trp^265 residue that occurs upon release of the chromophore after illumination ([43]).
The washed ROS with isotonic and hypotonic buffers was used as described above. The solubilized rhodopsin at 1.05 mg/ml in 20 mM 1,3-bis(tris(hydroxymethyl)methylamino) propane, pH 6.9, 100 mM NaCl, and 1 mM LMNG buffer was incubated for 5 min at 20 °C with 0.7 μl of 100 mM stock solutions of the nine identified hit compounds (100 μM final concentration) in DMSO and centrifuged at 1000g for an additional 5 min. Next, photobleaching was carried out with a 150-W fiber light delivered through a 480 to 520 nm band pass filter (Chroma Technology) for 10 s. Samples were subjected to fluorescence measurements acquired through 150 s in triplicate. The results were analyzed with an L55 luminescence spectrophotometer (PerkinElmer) operating at excitation and emission wavelengths of 300 nm and 335 nm, respectively.

[1] = system: rod photoreceptors of isolated mouse retinas; assay: ex vivo ERG of isolated mouse retinas (rod light responses); format: cell-based, mouse (C57BL/6J); details: 250 μM compound
Excerpt: We determined the impact of compound #7 (representative disrupter of rhodopsin dimerization) and compound #1 (representative enhancer) on the sensitivity and kinetics of rod light responses, using ex vivo electroretinogram (ERG) analysis of isolated mouse retinas (Experimental procedures). This technique allows robust recordings from intact retinas and is well suited for quantitative investigation of mouse phototransduction ([48], [49], [50], [51], [52], [53]).
Ex vivo ERG recordings were conducted with isolated retinas of C57Bl/6J mice, as described ([41], [62], [63]). Mice were dark-adapted overnight and euthanized by CO2 asphyxiation, and whole retinas were dissected under dim red light. Before recordings, retinas were incubated for 5 h in Ames’ medium (Sigma-Aldrich) inside a light-tight box that was supplied with humidified 95% O2/5% CO2. For control retinas, 0.1% DMSO was added to the incubation medium, and for others, the incubation medium contained either 250 μM F2502-0030 (compound #1) or F5897-0190 (compound #7). These compounds were first dissolved in DMSO at 250 mM concentration, and 0.1% of this stock solution was added to the incubation medium (Ames’ medium). Stock solution was stored at −20 °C and used within a week. After incubation, retinas were placed on the ex vivo ERG specimen holder and perfused with Ames’ medium (saturated with 95% O2/5% CO2) at 1.5 ml/min at 35 °C. Ames’ medium was supplemented with 100 μM BaCl2 and 40 μM DL-AP4 (Tocris Bioscience) to isolate the photoreceptor component of the ERG signal. Responses were recorded to 5 ms flashes of light (630 nm) ranging from 276 to 308,534 photons μm^−2, corresponding to 1 to 1100 photons μm^−2 at 500 nm ([64]). Sensitivity of rod photoreceptors was determined in three ways: (1) sF = peak amplitude of dim flash response divided by flash energy (1 photon μm^−2); (2) SF = sF/Rmax, where Rmax is the maximal response amplitude measured at the plateau from a saturated rod response; (3) I1/2: flash energy required to elicit 50% of the Rmax determined by fitting a Naka-Rushton function to flash energy-amplitude data.

[2] = system: individual rod photoreceptors; assay: single-cell suction electrode recording from rod outer segments; format: cell-based, mouse (C57BL/6J); details: suction electrode, 250 μM compound
Procedure: Because it is possible that reduction of Rmax by compound #1 is due to some effect(s) on the rod photoreceptor inner segment currents that are not directly related to phototransduction ([51], [52]), we conducted also single-cell suction electrode recordings from the ROS from samples that were incubated either in the control medium or in the medium containing enhancer compound #1. The results from single cell recordings were similar to those obtained using ex vivo ERG: Rmax and fractional sensitivity were decreased from 12 (±0.4) to 9 (±0.3) pA and from 3.0 (±0.5) to 1.8 (±0.1)% per photon μm^−2, respectively, by rhodopsin dimerization–enhancing hit #1 (Fig. 6, A–C). Like the ex vivo ERG recordings, light response kinetics was not affected by compound #1 in the single-cell recordings (Fig. 6D).
Suction electrode recordings from individual rod photoreceptors of dark-adapted C57BL/6J mice were conducted as described previously ([65]). Before recordings, isolated retinas were incubated in the control medium (Ames’ medium + 0.1% DMSO) or in the hit compound–containing medium (Ames’ medium +250 μM F2502-0030 (#1)) as described above for ex vivo ERG experiments. After incubation, one half of the retina was chopped with a razor blade and transferred into a chamber where it was perfused at 1 ml/min with Ames’ medium saturated with 95% O2/5% CO2 at 35 °C. Recordings were made from a single ROS, using borosilicate glass electrodes with ∼1.5-μm opening (resistance ∼2 MΩ at 35 °C). The pipette solution was Hepes buffered Ames’ medium composed of 0.88 g Ames’ powder (A1420, Sigma-Aldrich), 0.357 g Hepes (Sigma-Aldrich), and 58.44 mg NaCl in […] distilled and vacuum-filtered water. The pH was adjusted to 7.4 with NaOH. Light responses were recorded to flashes of light ranging from 8 to 700 photons μm^−2 at 500 nm. For analysis, data were low-pass filtered using an 8-pole Bessel filter with cut-off frequency at 30 Hz.

T1 sequence (P02699 whole entry): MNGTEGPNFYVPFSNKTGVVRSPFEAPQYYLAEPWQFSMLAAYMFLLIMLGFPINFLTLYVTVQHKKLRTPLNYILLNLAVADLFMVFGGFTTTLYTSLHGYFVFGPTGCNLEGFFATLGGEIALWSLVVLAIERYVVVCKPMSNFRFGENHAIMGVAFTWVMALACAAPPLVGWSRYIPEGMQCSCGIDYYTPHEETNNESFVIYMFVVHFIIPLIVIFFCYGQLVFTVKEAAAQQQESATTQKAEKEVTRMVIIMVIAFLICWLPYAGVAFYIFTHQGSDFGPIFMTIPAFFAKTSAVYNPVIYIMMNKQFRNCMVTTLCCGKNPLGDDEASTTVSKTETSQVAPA

light-induced increase in Trp265 intrinsic fluorescence vs DMSO-treated isorhodopsin (bovine rhodopsin): significantly quenched
Rmax ([1]; 5 h incubation, N = 4 retinas): 320 ± 80 ^a μV
half-saturating I1/2 from best-fitting Michaelis–Menten equation to mean normalized amplitudes ([1]; Fig. 5F): 37 photons μm^−2
SF (fractional sensitivity, sF/rmax) ([1]; N = 4): 5.0 ± 0.3 ^a %/photons∙μm^−2
sF (absolute sensitivity) ([1]; N = 4): 13 ± 5 ^a μV/photons∙μm^−2
I1/2 ([1]; from individual retinas, N = 4): 37 ± 2 ^a photons∙μm^−2
tp ([1]; time-to-peak of dim flash (1 photon μm^−2), N = 4): 163 ± 12 ms
Compound: O=C(CSc1nnc(NC(=O)Cc2ccc(F)cc2)s1)NO [#1]
Meta II decay rate (slope of intrinsic fluorescence over 150 s) relative to DMSO control (bovine rhodopsin; bleached rhodopsin, p < 0.0001): statistically significant signal reduction
effect on kinetics of rod light responses [1]: did not substantially affect the kinetics of responses
light response kinetics (single-cell) [2]: not affected
fractional sensitivity (single-cell) ([2]; control 3.0 (±0.5)): 1.8 (±0.1) % per photon μm^−2
Rmax (single-cell) ([2]; control 12 (±0.4)): 9 (±0.3) pA
